Consider one compound from patent publication US20250222068A1, “COMPOSITION FOR PREVENTING OR TREATING LUPUS COMPRISING RECOMBINANT STABILIZED GALECTIN-9 PROTEIN” (GBIOLOGICS INC., priority 2022, published 2025).

This data set in a line: Body weight assessment in an in vivo model of systemic lupus erythematosus. The following applies: mycophenolate 60 mg/kg PO once daily, 9 weeks, MRL/FAS^lpr mice, FIG. 1.

For the compound `COc1c(C)c2c(c(O)c1C/C=C(\C)CCC(=O)O)C(=O)OC2` [Mycophenolate, mycophenolate], the “changes in body weight” value is on record as “no statistically significant changes in body weight”.
